Laboratory results from patent publication US4315003A, “Compositions containing azo compounds and use thereof for therapeutic treatment” (priority 1979, dated 1982).

Columns and labels:
[1] = test system: isolated guinea-pig atria; assay: Cardiotropic action in isolated guinea-pig atria; parameters: species or system guinea-pig (male); details: Cavia porcellus, 30° C.; for inhibition at 1 µg/mL / activation at 1 µg/mL: 1 μg/ml; for inhibition at 3 µg/mL / activation at 3 µg/mL: 3 μg/ml
Procedure: Cardiotropic Action in Isolated Guinea-Pig Atria
The isolated atria from male Guinea-Pigs weighing about 350 grams were hanged in an organ bath filled with a Krebs-Henselite's solution and bubbled with a mixed gas (5% CO2 and 95% O2) at 30° C. A solution of the test compound in dimethylsulfoxide was added to the bath. The contractile force and beats were then measured and calibrated into a percentage increase of the contractile force and a percentage decrease of the beats.

rats [2] = assay: Diuretic action in rats (urinary volume during 5 hours after oral administration); assay type: in vivo, rat (male, Wistar strain); details: urinary volume 5 hours, control = 100%
Procedure: A group of 5 male rats of Wistar strain having each a body weight ranging from 180 to 200 grams was used for each test compound. The rats were fasted overnight and then abstained from water two hours before the administration of the test compound. The test compound was prepared by suspending the compound in a 5% arabic gum-saline solution and administered orally to the rats in the amount of 25 ml per kg. of body weight.
The urine was collected during 5 hours after administration and its volume was measured. The diuretic actions of the test compounds were calculated as the urinary volume of the control group where no test compound was administered being as 100%.

rats [3] = assay: Hypertensive action in rats (blood pressure, oral, without anesthesia); assay type: in vivo, rat
Procedure: Hypertensive Action in Rats
A suspension of the test compound in a 5% arabic gum solution was orally to rats catheterized before more than 24 hours according to Mizokami et al. (Nihon Taishitsugaku Zasshi, 32, p.p. 59-63 (1969)).

Solubility = assay type: physicochemical
rabbit eye mucosa = assay: Therapeutic action on hyperemia of rabbit eye mucosa (induced by 0.03 N sodium hydroxide); assay type: in vivo, rabbit (male Japanese albino); parameters: key: conjunctival erythema score per Fukui and Ikemoto standards; details: for Average Erythema Score After Treatment: 50 μl instilled, before treatment 1, solvent alone 1; for Average Erythema Score Before Treatment: baseline
Procedure: Therapeutic Action on Hyperemia of Rabbit Eye Mucosa
100 μl of 0.03 N sodium hydroxide was instillated into one eye to induce hyperemia in male Japanese albino rabbits weighting about 3 Kg. A group of 3 rabbits was used for test, which were caused an erythema score 1 on their conjunctive based on the standards of Fukui and Ikemoto (Gendai-no-Rinshao, 4, pp. 277 (1970)). The test compound was dissolved in a 10% NIKKOL HCO-60 (trademark: Nikko Chemical Co., Ltd.) and instilled to the test rabbit at a rate of 50 μl.

Acute toxicity in mice = details: mouse, in vivo, deaths for seven days
Procedure: A group of 10 male mice of ddY strain weighing about 25 grams was administered orally or intraperitoneally with a suspension of the test compound in a 5% arabic gum solution in the amount of 10 ml per kg. of body weight. The LD50 values were calculated by means of the Wilcoxon-Litchfield method on the number of mice died for seven days after administration.

[4] = read-out: Percentage Decrease in Beats
[5] = read-out: Percentage Increase of Contractile Force

COc1ccccc1N=Nc1ncc[nH]1 [Compound E, 2-[(2-methoxyphenyl)azo]-1H-imidazole]
inhibition at 10 µg/mL ([1]; 10 μg/ml, read-out: Percentage Decrease in Beats): 2.2%
activation at 10 µg/mL ([1]; 10 μg/ml, read-out: Percentage Increase of Contractile Force): 5.7%
Diuretic Activity (rats [2]; 10.0 mg/kg): 175%
Diuretic Activity (rats [2]; 20.0 mg/kg): 206%
Variation in Blood Pressures, Duration Period (rats [3]; 10 mg/kg): 85 min
Variation in Blood Pressures, Percentage Increase (rats [3]; 10 mg/kg): 52%
Solubility in acetone (Solubility): readily soluble
Solubility in hexane (Solubility): sparingly soluble
Solubility in methanol (Solubility): readily soluble
Solubility in water (Solubility): sparingly soluble
Average Erythema Score After Treatment (rabbit eye mucosa; 0.1%): 0.5
Average Erythema Score Before Treatment (rabbit eye mucosa): 1
LD50 at 168 h (Acute toxicity in mice; ip): 630 mg/kg
LD50 at 168 h (Acute toxicity in mice; po, orally): 1010 mg/kg

COc1ccc(Cl)cc1N=Nc1ncc[nH]1 [Compound A, 2-[(2-methoxy-5-chlorophenyl)azo]-1H-imidazole]
inhibition at 1 µg/mL [1, 4]: 5.4%
activation at 1 µg/mL [1, 5]: 15.4%
Diuretic Activity (rats [2]; 0.5 mg/kg): 133%
Diuretic Activity (rats [2]; 1.0 mg/kg): 183%
Diuretic Activity (rats [2]; 2.0 mg/kg): 329%
Variation in Blood Pressures, Duration Period (rats [3]; 1 mg/kg): 55 min
Variation in Blood Pressures, Percentage Increase (rats [3]; 1 mg/kg): 49%
Solubility in acetone (Solubility): readily soluble
Solubility in hexane (Solubility): less soluble
Solubility in methanol (Solubility): readily soluble
Solubility in water (Solubility): less soluble
Average Erythema Score After Treatment (rabbit eye mucosa; 0.05%): 0.33
Average Erythema Score Before Treatment (rabbit eye mucosa): 1
LD50 at 168 h (Acute toxicity in mice; ip): 795 mg/kg
LD50 at 168 h (Acute toxicity in mice; po, orally): 1280 mg/kg

COc1ccc(Br)cc1N=Nc1ncc[nH]1 [Compound C, 2-[(2-methoxy-5-bromophenyl)azo]-1H-imidazole]
inhibition at 3 µg/mL [1, 4]: 4.2%
activation at 3 µg/mL [1, 5]: 7.4%
Diuretic Activity (rats [2]; 5.0 mg/kg): 171%
Diuretic Activity (rats [2]; 10.0 mg/kg): 283%
Variation in Blood Pressures, Duration Period (rats [3]; 5 mg/kg): 70 min
Variation in Blood Pressures, Percentage Increase (rats [3]; 5 mg/kg): 40%
Solubility in acetone (Solubility): readily soluble
Solubility in hexane (Solubility): sparingly soluble
Solubility in methanol (Solubility): readily soluble
Solubility in water (Solubility): sparingly soluble
Average Erythema Score After Treatment (rabbit eye mucosa; 0.2%): 0.33
Average Erythema Score Before Treatment (rabbit eye mucosa): 1
LD50 at 168 h (Acute toxicity in mice; ip): > 1000 mg/kg
LD50 at 168 h (Acute toxicity in mice; po, orally): > 1500 mg/kg

COc1ccc(F)cc1N=Nc1ncc[nH]1 [Compound B, 2-[(2-methoxy-5-fluorophenyl)azo]-1H-imidazole]
inhibition at 1 µg/mL [1, 4]: 2.3%
activation at 1 µg/mL [1, 5]: 11.5%
Diuretic Activity (rats [2]; 1.0 mg/kg): 154%
Diuretic Activity (rats [2]; 2.0 mg/kg): 275%
Variation in Blood Pressures, Duration Period (rats [3]; 2 mg/kg): 65 min
Variation in Blood Pressures, Percentage Increase (rats [3]; 2 mg/kg): 42%
Solubility in acetone (Solubility): readily soluble
Solubility in hexane (Solubility): less soluble
Solubility in methanol (Solubility): readily soluble
Solubility in water (Solubility): less soluble
Average Erythema Score After Treatment (rabbit eye mucosa; 0.05%): 0.33
Average Erythema Score Before Treatment (rabbit eye mucosa): 1
LD50 at 168 h (Acute toxicity in mice; ip): 322 mg/kg
LD50 at 168 h (Acute toxicity in mice; po, orally): 462 mg/kg

COc1ccc(I)cc1N=Nc1ncc[nH]1 [Compound D]
inhibition at 3 µg/mL [1, 4]: 3.6%
activation at 3 µg/mL [1, 5]: 6.9%
Diuretic Activity (rats [2]; 5.0 mg/kg): 138%
Diuretic Activity (rats [2]; 10.0 mg/kg): 183%
Variation in Blood Pressures, Duration Period (rats [3]; 5 mg/kg): 50 min
Variation in Blood Pressures, Percentage Increase (rats [3]; 5 mg/kg): 35%
Solubility in acetone (Solubility): readily soluble
Solubility in hexane (Solubility): sparingly soluble
Solubility in methanol (Solubility): readily soluble
Solubility in water (Solubility): sparingly soluble
Average Erythema Score After Treatment (rabbit eye mucosa; 0.2%): 0.5
Average Erythema Score Before Treatment (rabbit eye mucosa): 1
LD50 at 168 h (Acute toxicity in mice; ip): > 1000 mg/kg
LD50 at 168 h (Acute toxicity in mice; po, orally): > 1500 mg/kg

Nc1nc(N)c2nc(-c3ccccc3)c(N)nc2n1 [triamterene, reference compound]
Diuretic Activity (rats [2]; 10.0 mg/kg): 192%
Diuretic Activity (rats [2]; 20.0 mg/kg): 242%

NS(=O)(=O)c1cc(C(=O)O)c(NCc2ccco2)cc1Cl [furosemide, reference compound]
Diuretic Activity (rats [2]; 5.0 mg/kg): 113%
Diuretic Activity (rats [2]; 10.0 mg/kg): 188%
Diuretic Activity (rats [2]; 20.0 mg/kg): 292%
